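Each compound was tested at five concentrations against cells in 96-well plates for 48 hours. Here, GI50 denotes the concentration required for 50% inhibition of growth. TGI: concentration producing complete growth inhibition.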
How the values were obtained:
Assay in all cases: NCI anticancer screen, dose series, 48 h
HT29 colon = tested on: HT29 colon
MCF7 breast = tested on: MCF7 breast
OVCAR-5 ovarian = tested on: OVCAR-5 ovarian
OVCAR-8 ovarian = tested on: OVCAR-8 ovarian
SK-MEL-2 melanoma = tested on: SK-MEL-2 melanoma
SNB-75 CNS = tested on: SNB-75 CNS
UACC-62 melanoma = tested on: UACC-62 melanoma
CCRF-CEM leukemia = tested on: CCRF-CEM leukemia
HL-60(TB) leukemia = tested on: HL-60(TB) leukemia
MOLT-4 leukemia = tested on: MOLT-4 leukemia

Row | Compound | TGI (HT29 colon) [µM] | TGI (MCF7 breast) [µM] | TGI (OVCAR-5 ovarian) [µM] | TGI (OVCAR-8 ovarian) [µM] | TGI (SK-MEL-2 melanoma) [µM] | TGI (SNB-75 CNS) [µM] | TGI (UACC-62 melanoma) [µM] | GI50 (CCRF-CEM leukemia) [µM] | TGI (CCRF-CEM leukemia) [µM] | GI50 (HL-60(TB) leukemia) [µM] | TGI (HL-60(TB) leukemia) [µM] | GI50 (OVCAR-5 ovarian) [µM] | GI50 (OVCAR-8 ovarian) [µM] | GI50 (SK-MEL-2 melanoma) [µM] | GI50 (SNB-75 CNS) [µM] | GI50 (UACC-62 melanoma) [µM] | TGI (MOLT-4 leukemia) [µM] | GI50 (HT29 colon) [µM] | GI50 (MCF7 breast) [µM] | GI50 (MOLT-4 leukemia) [µM]
1 | CCC(c1ccccc1)c1cc(C(C)(C)C)cc(C(C)(C)C)c1O (stereo not drawn) | 28 | 35.7 | 26.6 | 31.1 | 29 | 27.2 | 32.2 | – | – | – | – | – | – | – | – | – | – | – | – | –
2 | O=C1/C(=C/c2ccc(C(F)(F)F)cc2)COc2ccc(O)c(O)c21 | – | – | 3.09 | 2.96 | 3.99 | 3.02 | 2.87 | 0.335 | 2.25 | 0.52 | 3.06 | 1.6 | 0.846 | 1.83 | 1.39 | 1.48 | – | – | – | –
3 | N#CC(/C(CCCC(=O)Nc1cccc([N+](=O)[O-])c1)=N\NC(=O)c1c(O)ccc2ccccc12)c1nc2ccccc2s1 (stereo not drawn) | > 100 | – | > 100 | > 100 | > 100 | > 100 | – | – | > 100 | – | 24.1 | – | – | – | – | – | > 100 | – | – | –
4 | COc1ccc(C(=O)C(C(=O)C(=O)NCCCNC(=O)C(=O)C(C(=O)c2ccc(OC)cc2)c2ccc(OC)cc2)c2ccc(OC)cc2)cc1 (stereo not drawn) | > 100 | – | > 100 | > 100 | > 100 | > 100 | > 100 | – | > 100 | – | > 100 | – | – | – | – | – | > 100 | – | – | –
5 | CCc1c(C)c2cc(-n3c(-c4ccc(OC)cc4)csc3=N)c(O)c(C)c2oc1=O | 6.12 | 3.07 | 4.75 | 8.28 | 5.84 | > 100 | 2.94 | 1.54 | > 100 | – | – | 2.19 | 2.24 | 1.66 | 1.67 | 1 | > 100 | 1.74 | 0.82 | 1.54
6 | O=C(N/C(=C\c1ccc(/C=C(\NC(=O)c2ccccc2)c2nc3c(O)nc(S)nc3[nH]2)cc1)c1nc2c(O)nc(S)nc2[nH]1)c1ccccc1 | > 100 | – | > 100 | > 100 | > 100 | 84.7 | > 100 | – | > 100 | – | – | – | – | – | – | – | > 100 | – | – | –
7 | COC1/C(=C\C(C)=O)c2ccccc2N1C(C)=O (stereo not drawn) | > 100 | – | – | > 100 | > 100 | > 100 | > 100 | – | > 100 | – | > 100 | – | – | – | – | – | > 100 | – | – | –
8 | COc1ccc(C(O)c2ccccn2)cc1 (stereo not drawn) | > 100 | > 100 | > 100 | > 100 | > 100 | > 100 | > 100 | – | – | – | – | – | – | – | – | – | > 100 | – | – | –
9 | CCN(CC)C(=S)SS(C)(=O)=O | 31 | – | 42.2 | 39.4 | 33.2 | > 100 | 30 | – | – | – | 26.6 | – | – | – | – | – | 42.8 | – | – | –
10 | O=C(CCc1ccccc1)CC1OC(=O)C(Cl)=C1Cl (stereo not drawn) | 58.2 | – | 35 | 41 | 36.1 | > 100 | 31.7 | – | > 100 | – | – | – | – | – | – | – | > 100 | – | – | –
11 | N#Cc1ccc(C2SCc3nc4ccccc4n32)cc1 (stereo not drawn) | – | – | – | > 100 | > 100 | > 100 | > 100 | – | > 100 | – | > 100 | – | – | – | – | – | > 100 | – | – | –
12 | Cc1ccc(S(=O)(=O)C2CC2(Cl)Cl)cc1 (stereo not drawn) | 37.5 | – | > 100 | 41 | > 100 | > 100 | 60.4 | – | 35 | – | – | – | – | – | – | – | 42.1 | – | – | –
13 | O=C(C(=CN1CCN(C(=O)c2ccco2)C1=S)C(=O)c1ccccc1)c1ccccc1 | > 50 | – | – | 41.4 | 25.6 | > 50 | 18.3 | – | – | 9.89 | 34.9 | – | 16.2 | 12.1 | 27.4 | 6.93 | > 50 | 16.9 | – | 15.2
14 | S=C(SSC(=S)N1CCCCC1)N1CCCCC1 | 29 | – | 27.9 | 60.9 | 67.8 | 57.6 | 49.1 | 8.18 | 58.3 | 12.4 | 51.3 | 14.6 | 16.2 | 25.1 | 16.7 | 16 | 49.5 | 14.3 | – | 17.2
15 | O=C1C(Cl)=C(NCCCN(CCCNC2=C(Cl)C(=O)c3ccccc3C2=O)C2=C(Cl)C(=O)c3ccccc3C2=O)C(=O)c2ccccc21 | – | 3.89 | 17.2 | 10.5 | – | 39.3 | 4.69 | 3.34 | > 100 | – | – | 4.85 | 3 | – | 20.6 | 1.98 | – | – | 1.48 | –
16 | Cc1[nH]c2cc([N+](=O)[O-])ccc2c1[N+](=O)[O-] | 97 | – | 79 | 79.8 | 31 | 57.5 | – | – | 64.6 | – | 55.1 | – | – | – | – | – | 71.4 | – | – | –
17 | CC(=O)CC(=O)Nc1ccccc1C(F)(F)F | – | – | > 100 | > 100 | > 100 | > 100 | > 100 | – | > 100 | – | > 100 | – | – | – | – | – | > 100 | – | – | –
18 | COC(=O)c1cc2cc(/C=C3/SC(=S)N(N(C(C)=O)C(C)=O)C3=O)oc2n1Cc1ccccc1 | > 100 | > 100 | 38.1 | 42.8 | > 100 | > 100 | 33 | 32.3 | > 100 | – | – | 19 | 18.3 | 40.3 | 37.1 | 14.4 | > 100 | 37.4 | 34.1 | 59.9
19 | CSc1nnc(C(C#N)C#N)nn1 | > 100 | – | > 100 | > 100 | – | > 100 | > 100 | – | > 100 | – | > 100 | – | – | – | – | – | > 100 | – | – | –
20 | CCOC(=O)C1C(=O)CC(=O)C2CCCCC21 (stereo not drawn) | – | – | > 100 | > 100 | > 100 | > 100 | > 100 | – | > 100 | – | > 100 | – | – | – | – | – | > 100 | – | – | –
21 | CC(=O)C1C(=O)C(=O)N(CCN2C(=O)C(=O)C(C(C)=O)C2=O)C1=O (stereo not drawn) | > 100 | – | > 100 | > 100 | > 100 | > 100 | > 100 | – | – | – | – | – | – | – | – | – | – | – | – | –
22 | CC(=O)[CH-]C(=O)c1ccccc1.CC(=O)[CH-]C(=O)c1ccccc1.CC(=O)[CH-]C(=O)c1ccccc1.[Ga+3] | 39.1 | – | 66.8 | 29.2 | 23.6 | 69.3 | 30 | 4.39 | 35.7 | 11.8 | 36.1 | 26.5 | 14.8 | 10.8 | 20.3 | 16.4 | 30.4 | 20.7 | – | 9.64
23 | COC(=O)[C@@]12C3=NO[C@]1(C(=O)OC)C(O[Si](C)(C)C(C)(C)C)[C@@H](OC(C)=O)[C@@H](OC(C)=O)[C@@H]2[C@@H](OCc1ccccc1)CC3 (stereo partly drawn) | > 100 | – | > 100 | > 100 | > 100 | > 73.7 | > 100 | – | > 100 | – | > 100 | – | – | – | – | – | > 100 | – | – | –
24 | CN(C)N=Nc1ccc(S(N)(=O)=O)cc1 | > 100 | – | > 100 | > 100 | > 100 | > 100 | > 100 | – | > 100 | – | – | – | – | – | – | – | > 100 | – | – | –
25 | O=C(CI)Nc1ccc(Br)cc1 | 5.28 | 3.95 | 4.81 | 5.95 | 8.03 | 24.7 | 14.8 | 1.75 | > 100 | – | – | 2.14 | 2.46 | 2.9 | 5.42 | 3.96 | > 100 | 2.43 | 1.91 | 3.43
26 | COc1cc(O)c(C(=O)/C=C/c2ccc(OC)c(OCc3ccccc3)c2)c(OC)c1 | > 100 | – | > 100 | > 100 | > 100 | > 100 | 7.33 | – | > 100 | – | > 100 | – | – | – | – | – | > 100 | – | – | –
27 | Clc1ccc(-c2nc(NCc3ccco3)c3ccccc3n2)c(Cl)c1 | – | > 100 | > 100 | 82.7 | > 100 | – | 32.7 | 10.5 | > 100 | – | – | 40.1 | 24.2 | 36.8 | – | 13.9 | > 100 | – | 6.38 | 9.16
28 | NC(=O)c1ncn(C2OC(CO)C(O)C2O)c1O (stereo not drawn) | 46.5 | – | > 100 | > 100 | > 100 | > 100 | > 100 | – | > 100 | – | > 100 | – | – | – | – | – | > 100 | – | – | –
29 | CC1=C2C=CC(=O)C[C@@]2(C)CCC1 | > 100 | – | > 100 | > 100 | > 100 | > 100 | > 100 | – | > 100 | – | > 100 | – | – | – | – | – | > 100 | – | – | –
30 | CCN(CC)c1ccc(C2N3CCCCC3[C@@H]3c4[nH]c5ccccc5c4CCN23)cc1 (stereo partly drawn) | 36.3 | – | > 100 | > 100 | – | 29.1 | 36.6 | – | 63.9 | – | 30.8 | – | – | – | – | – | > 100 | – | – | –
